From patent US6117878A, “8-phenyl- or 8-cycloalkyl xanthine antagonists of A2B human adenosine receptors” (priority 1998, dated 2000)
“Also recorded” adds a separate entry of the source.

Assays:
[1] = target: T1, recombinant human A1 adenosine receptors (Homo sapiens, UniProt P30542); assay: Competition binding screen, A1 (Table 1)
T1 construct: expressed in transfected cells
T1 sequence (P30542 1-326): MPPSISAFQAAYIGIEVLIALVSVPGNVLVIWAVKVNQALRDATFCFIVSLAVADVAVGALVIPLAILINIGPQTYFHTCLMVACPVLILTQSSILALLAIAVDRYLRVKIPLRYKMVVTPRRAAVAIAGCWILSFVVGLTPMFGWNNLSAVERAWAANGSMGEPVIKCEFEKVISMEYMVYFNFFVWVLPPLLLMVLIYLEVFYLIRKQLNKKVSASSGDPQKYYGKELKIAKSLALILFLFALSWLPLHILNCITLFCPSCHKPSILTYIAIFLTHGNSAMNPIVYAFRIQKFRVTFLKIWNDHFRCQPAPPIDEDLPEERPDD
Excerpt: (§1) A series of compounds was screened to identify potent A2B selective antagonists. This was done in competition binding assays using recombinant human A1, A2A, A2B or A3 adenosine receptors, similar to that illustrated in FIGS. 2A and 2B.

[2] = target: T2, recombinant human A2B adenosine receptors (Homo sapiens, UniProt P29275); assay: Competition binding screen, A2B (Table 1); set-up: expressed in transfected cells; host or cells: cells expressing the recombinant receptor
T2 sequence (P29275 1-332): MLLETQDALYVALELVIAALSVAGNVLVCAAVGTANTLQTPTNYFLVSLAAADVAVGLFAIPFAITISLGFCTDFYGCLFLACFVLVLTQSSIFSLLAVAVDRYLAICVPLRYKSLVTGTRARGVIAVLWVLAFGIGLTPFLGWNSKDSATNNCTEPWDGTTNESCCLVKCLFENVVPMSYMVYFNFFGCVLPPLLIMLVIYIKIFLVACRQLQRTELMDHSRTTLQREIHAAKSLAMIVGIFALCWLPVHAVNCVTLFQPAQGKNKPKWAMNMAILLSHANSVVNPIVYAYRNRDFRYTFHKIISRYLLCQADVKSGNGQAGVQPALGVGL
Excerpt: (§2) This was done in competition binding assays using recombinant human A1, A2A, A2B or A3 adenosine receptors, similar to that illustrated in FIGS. 2A and 2B.

[3] = target: T3, recombinant human A2A adenosine receptors (Homo sapiens, UniProt P29274); assay: Competition binding screen, A2A (Table 1)
T3 construct: expressed in transfected cells
T3 sequence (P29274 whole entry): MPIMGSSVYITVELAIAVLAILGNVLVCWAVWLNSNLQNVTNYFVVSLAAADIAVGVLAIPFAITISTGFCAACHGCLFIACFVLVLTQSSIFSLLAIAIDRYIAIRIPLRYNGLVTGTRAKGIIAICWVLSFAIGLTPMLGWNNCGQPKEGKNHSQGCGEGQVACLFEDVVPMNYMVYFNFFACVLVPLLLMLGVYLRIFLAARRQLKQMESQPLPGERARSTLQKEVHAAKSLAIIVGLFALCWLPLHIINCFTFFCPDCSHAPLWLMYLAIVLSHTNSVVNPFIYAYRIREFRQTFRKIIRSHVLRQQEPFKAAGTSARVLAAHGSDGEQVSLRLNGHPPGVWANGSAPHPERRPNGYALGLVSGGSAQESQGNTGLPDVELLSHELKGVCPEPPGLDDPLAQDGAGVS
Excerpt: as §2

[4] = target: T4, recombinant human A3 adenosine receptors (Homo sapiens, UniProt P0DMS8); assay: Competition binding screen, A3 (Table 1)
T4 construct: expressed in transfected cells; host or cells: cells expressing the recombinant receptor
T4 sequence (P0DMS8 1-318): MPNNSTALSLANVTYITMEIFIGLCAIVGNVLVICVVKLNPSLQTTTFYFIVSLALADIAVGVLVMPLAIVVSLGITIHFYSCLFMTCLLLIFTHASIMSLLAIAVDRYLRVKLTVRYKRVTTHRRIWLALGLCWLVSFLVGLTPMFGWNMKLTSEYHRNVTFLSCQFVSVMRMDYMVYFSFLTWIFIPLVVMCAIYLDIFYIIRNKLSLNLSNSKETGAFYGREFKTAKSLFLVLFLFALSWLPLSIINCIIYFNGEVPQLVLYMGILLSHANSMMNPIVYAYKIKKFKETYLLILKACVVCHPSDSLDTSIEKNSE
Excerpt: as §1

[5] = target: T5, rhA2B adenosine receptors (Homo sapiens, UniProt P29275); assay: NECA-stimulated cyclic AMP accumulation in HEK 293 cells transfected with rhA2B adenosine receptors, Schild analysis; assay type: cell-based; details: cAMP, cells expressing rhA2B
T5 construct: expressed in transfected cells; host or cells: HEK 293 cells, stably transfected
T5 sequence (P29275 1-332): T2 sequence (P29275 1-332)
Excerpt: Agonists were used to modulate cAMP in HEK 293 cells stably transfected the rhA2B adenosine receptors or rhA3 adenosine receptors.

human HMC-1 mast cells [6] = assay: Intracellular Ca2+ accumulation in HMC-1 mast cells (FURA); assay type: cell-based; details: FIG. 1A
[7] = target: T2, recombinant human A2B adenosine receptors; assay: Calcium mobilization in HEK-293 cells transfected with recombinant human A2B adenosine receptors (FURA); assay type: cell-based; set-up: expressed in transfected cells; host or cells: cells expressing the recombinant receptor
Protocol: The activation of the phospholipase C pathway leads to intracellular calcium mobilization.
Calcium mobilization was measured in cells preloaded with FURA.

[8] = target: T2, recombinant human A2B adenosine receptors; assay: IP3 generation in HEK 293 cells transfected with recombinant human A2B adenosine receptors
human HMC-1 mast cells [9] = assay: Cyclic AMP accumulation in HMC-1 mast cells (radioimmunoassay); assay type: cell-based; details: FIG. 1B
Protocol: Functional Responses Of Human HMC-1 Mast Cells to NECA and IB-MECA
In tests as described in "Canine Mast Cell Adenosine Receptors: Cloning and Expression of the A3 Receptor and Evidence that Degranulation is Mediated by the A2B Receptor," Molecular Pharmacology, 52:1-15 (1997) to, Auchampapch et al., that reference being incorporated herein by reference, intact cells were treated with the A3-selective agonist IB-MECA and the nonselective agonist NECA.
FIGS. 1A and 1B show (A) Intracellular Ca^2+ accumulation measured in cells pretreated with the Ca^2+ -sensitive fluorescent reporter, FURA and (B) Cyclic AMP accumulation measured by radioimmunoassay. The results are typical of triplicate experiments.

[10] = target: T2, recombinant human A2B adenosine receptors; assay: Competition for [3H]DPX binding to rhA2B adenosine receptors (Example 2); set-up: expressed in transfected cells; host or cells: cells expressing the recombinant receptor
[11] = target: T4, recombinant human A3 adenosine receptors; assay: Competition radioligand binding to rhA3 adenosine receptors (Example 2); details: other subtypes than A2B; FIG. 2 and Table 1
adenosine receptors = details: cited from earlier work

Ki [2] [nM]	Ki [3] [nM]	Ki [4] [nM]	SMILES	Ki [1] [nM]	Functional response to agonist [5]	Stimulation of calcium mobilization (human HMC-1 mast cells [6]; worded as canine mast cells)	Intracellular Ca2+ accumulation / calcium mobilization (human HMC-1 mast cells [6]; human mast cell line HMC-1)	Increase in intracellular Ca2+ content ([7]; human A2B transfected cells)	Increase in IP3 formation ([8]; NECA at 10 μM, rhA2B transfected HEK 293) [fold]	Stimulation of cyclic AMP accumulation (human HMC-1 mast cells [9]; worded as canine mast cells)	Cyclic AMP accumulation (human HMC-1 mast cells [9]; human mast cell line HMC-1)	Affinity for human A2B versus human A3 adenosine receptors ([10]; competition binding, FIGS. 2A and 2B)	Block of recombinant human A2B adenosine receptors ([10]; therapeutic concentration range of 20-50 μM, FIG. 2 and Table 1)	Antagonism of other adenosine receptor subtypes [11]	Binding to adenosine receptors (literature) (adenosine receptors; Lunell et al.)	Block of adenosine receptors (literature) (adenosine receptors; enprofylline: therapeutic concentration range of 20-50 uM, examined at A1 and A2A only)	Block of Ca2+ response induced by 1 μM NECA ([7]; 100 μM antagonist)	Block of increase in IP3 produced by 10 μM NECA ([8]; 250 μM antagonist)
198 ± 52	1520 ± 797	922 ± 399	O=C(O)C=Cc1ccc(-c2nc3c([nH]2)c(=O)n(CC2CCCCC2)c(=O)n3CC2CCCCC2)cc1 [BW-A493]	4980 ± 553	–	–	–	–	–	–	–	–	–	–	–	–	–	–
–	–	–	CCNC(=O)[C@H]1O[C@@H](n2cnc3c(N)ncnc32)[C@H](O)[C@@H]1O [NECA, 5-N-ethylcarboxamidoadenosine]	–	dose-dependent functional response	stimulates canine mast cells to mobilize calcium	stimulates human mast cells to mobilize calcium; also recorded: causes intracellular Ca^2+ and cyclic AMP accumulation	dose-dependent increase in intracellular Ca^2+ content	3.5	stimulates canine mast cells to mobilize calcium and to accumulate cyclic AMP	stimulates human mast cells to mobilize calcium and to accumulate cyclic AMP; also recorded: causes intracellular Ca^2+ and cyclic AMP accumulation	–	–	–	–	–	–	–
–	–	–	CCCn1c(=O)[nH]c(=O)c2[nH]cnc21 [enprofylline]	156000	–	–	–	–	–	–	–	higher affinities for human A2B adenosine receptors than for human A3 adenosine receptors	blocks recombinant human A2B adenosine receptors	much weaker antagonist of other adenosine receptor subtypes	bind weakly to adenosine receptors	found not to block adenosine receptors	totally blocks	able to block the increase in IP3
